# Results from ChEMBL document CHEMBL5257156, “Improving binding entropy by higher ligand symmetry? - A case study with human matriptase” (RSC Med Chem, 2023).
# Tests used:
# [1] = molecular target: T1, Suppressor of tumorigenicity 14 protein (Homo sapiens) (UniProt Q9Y5Y6); test: Binding affinity to recombinant hexahistidine tagged human MT-SP1 (596 to 855 residues) expressed in Escherichia coli BL21 gold (DE3) cells assessed as change in entropy by ITC analysis
# T1 sequence (whole entry): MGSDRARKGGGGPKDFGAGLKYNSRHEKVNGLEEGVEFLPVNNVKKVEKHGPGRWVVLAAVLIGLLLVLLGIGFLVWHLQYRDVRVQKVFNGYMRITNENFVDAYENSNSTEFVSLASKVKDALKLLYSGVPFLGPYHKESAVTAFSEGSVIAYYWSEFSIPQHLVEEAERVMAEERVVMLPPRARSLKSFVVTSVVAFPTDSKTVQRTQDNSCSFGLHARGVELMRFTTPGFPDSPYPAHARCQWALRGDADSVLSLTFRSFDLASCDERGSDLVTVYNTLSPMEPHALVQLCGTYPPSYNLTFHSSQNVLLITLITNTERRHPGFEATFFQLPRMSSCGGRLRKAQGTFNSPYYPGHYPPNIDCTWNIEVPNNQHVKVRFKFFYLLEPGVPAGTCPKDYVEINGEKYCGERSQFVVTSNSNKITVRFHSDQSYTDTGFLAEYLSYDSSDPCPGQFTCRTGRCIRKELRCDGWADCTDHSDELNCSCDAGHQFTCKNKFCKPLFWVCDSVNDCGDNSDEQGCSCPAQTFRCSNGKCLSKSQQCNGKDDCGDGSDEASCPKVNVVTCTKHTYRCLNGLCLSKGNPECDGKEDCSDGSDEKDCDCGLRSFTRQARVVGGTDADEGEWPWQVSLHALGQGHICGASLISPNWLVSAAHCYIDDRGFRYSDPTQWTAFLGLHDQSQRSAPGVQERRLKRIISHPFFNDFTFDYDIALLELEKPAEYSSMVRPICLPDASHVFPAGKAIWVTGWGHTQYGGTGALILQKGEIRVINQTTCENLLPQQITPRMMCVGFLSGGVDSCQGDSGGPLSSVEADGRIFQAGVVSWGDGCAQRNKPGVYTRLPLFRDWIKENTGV
# [2] = molecular target: T1, Suppressor of tumorigenicity 14 protein (Homo sapiens); test: Binding affinity to recombinant hexahistidine tagged human MT-SP1 (596 to 855 residues) expressed in Escherichia coli BL21 gold (DE3) cells assessed as change in enthalpy by ITC analysis
# [3] = molecular target: T1, Suppressor of tumorigenicity 14 protein (Homo sapiens); test: Binding affinity to recombinant hexahistidine tagged human MT-SP1 (596 to 855 residues) expressed in Escherichia coli BL21 gold (DE3) cells assessed as free energy change by ITC analysis
# [4] = molecular target: T2, Suppressor of tumorigenicity 14 protein (Homo sapiens, UniProt Q9Y5Y6); test: Binding affinity to recombinant hexahistidine tagged human MT-SP1 (596 to 855 residues) expressed in Escherichia coli BL21 gold (DE3) cells […] by ITC analysis
# T2 sequence (Q9Y5Y6 whole entry): T1 sequence (whole entry)
# [5] = molecular target: T2, Suppressor of tumorigenicity 14 protein; test: Inhibition of recombinant hexahistidine tagged human MT-SP1 (596 to 855 residues) expressed in Escherichia coli BL21 gold (DE3) cells using Boc-Leu-Arg-Arg-AMC as substrate measured every 30 secs for 10 mins by fluorescence based assay
# [6] = molecular target: T2, Suppressor of tumorigenicity 14 protein; test: Inhibition of human matriptase using Mes-D-Pro-Arg-AMC.2TFA as substrate incubated for 10 mins by fluorescence based assay
Compound,-TdeltaS [1],deltaH [2],deltaG [3],Kd [4],Ki [5],Ki [6]
N=C(N)c1ccc(Oc2cc(Oc3ccc(CN)cc3)cc(Oc3ccc(CN)cc3)c2)cc1,-9.7 kcal/mol,2.03 kcal/mol,-7.67 kcal/mol,2520 nM,775 nM,
N=C(N)c1ccc(CCNC(=O)CC(=O)NCCc2ccc(C(=N)N)cc2)cc1,-4.64 kcal/mol,-3.35 kcal/mol,-7.98 kcal/mol,1450 nM,,4230 nM
N=C(N)c1ccc(CCNC(=O)C(C(=O)NCCc2ccc(C(=N)N)cc2)C(=O)NCc2ccc(C(=N)N)cc2)cc1 (stereo not given),-7.19 kcal/mol,-1.63 kcal/mol,-8.82 kcal/mol,392 nM,,393 nM
NCc1ccc(Oc2cc(Oc3ccc(CN)cc3)cc(Oc3ccc(CN)cc3)c2)cc1,-8.15 kcal/mol,1.24 kcal/mol,-6.91 kcal/mol,10200 nM,18400 nM,
